Test results: ChEMBL document CHEMBL4229358, “Synthesis of novel 4-functionalized 1,5-diaryl-1,2,3-triazoles containing benzenesulfonamide moiety as carbonic anhydrase I, II, IV and IX inhibitors” (Eur J Med Chem, 2018)

Target: Carbonic anhydrase 9 (Homo sapiens, UniProt Q16790)
Test: Inhibition of transmembrane human carbonic anhydrase 9 by stopped flow CO2 hydration assay

Ki | SMILES
716 nM | NS(=O)(=O)c1ccc(-n2nnc(C(=O)O)c2-c2ccc(Cl)cc2)cc1
2090 nM | NS(=O)(=O)c1ccc(-n2nnc(C(=O)O)c2-c2ccccn2)cc1
633 nM | CCOC(=O)c1nnn(-c2ccc(S(N)(=O)=O)cc2)c1-c1ccc(F)cc1
1410 nM | NS(=O)(=O)c1ccc(-n2nnc(C(=O)O)c2-c2ccc(Br)cc2)cc1
228 nM | CCOC(=O)c1nnn(-c2ccc(S(N)(=O)=O)cc2)c1-c1ccc(Br)cc1
107 nM | NC(=O)c1nnn(-c2ccc(S(N)(=O)=O)cc2)c1-c1ccc(F)cc1
2330 nM | Cc1ccc(-c2c(CO)nnn2-c2ccc(S(N)(=O)=O)cc2)cc1
2450 nM | NNC(=O)c1nnn(-c2ccc(S(N)(=O)=O)cc2)c1-c1ccc(F)cc1
1210 nM | NS(=O)(=O)c1ccc(-n2nnc(CO)c2-c2ccc(Cl)cc2)cc1
73 nM | Cc1ccc(-c2c(C(N)=O)nnn2-c2ccc(S(N)(=O)=O)cc2)cc1
1310 nM | NS(=O)(=O)c1ccc(-n2nnc(C(=O)O)c2-c2cccs2)cc1
730 nM | NC(=O)c1nnn(-c2ccc(S(N)(=O)=O)cc2)c1-c1ccccn1
1410 nM | Cc1ccc(-c2c(C(=O)O)nnn2-c2ccc(S(N)(=O)=O)cc2)cc1
1730 nM | NS(=O)(=O)c1ccc(-n2nnc(CO)c2-c2ccc(Br)cc2)cc1
117 nM | NC(=O)c1nnn(-c2ccc(S(N)(=O)=O)cc2)c1-c1ccc(Cl)cc1
1580 nM | NS(=O)(=O)c1ccc(-n2nnc(C(=O)O)c2-c2ccc(F)cc2)cc1
237 nM | CCOC(=O)c1nnn(-c2ccc(S(N)(=O)=O)cc2)c1-c1cccs1
256 nM | NC(=O)c1nnn(-c2ccc(S(N)(=O)=O)cc2)c1-c1ccc(Br)cc1
2370 nM | NS(=O)(=O)c1ccc(-n2nnc(CO)c2-c2ccc(F)cc2)cc1
738 nM | Cc1ccc(-c2c(C(=O)NN)nnn2-c2ccc(S(N)(=O)=O)cc2)cc1
198 nM | CCOC(=O)c1nnn(-c2ccc(S(N)(=O)=O)cc2)c1-c1ccc(C)cc1
1420 nM | CCOC(=O)c1nnn(-c2ccc(S(N)(=O)=O)cc2)c1-c1ccccn1
225 nM | NC(=O)c1nnn(-c2ccc(S(N)(=O)=O)cc2)c1-c1cccs1
1480 nM | CCOC(=O)c1nnn(-c2ccc(S(N)(=O)=O)cc2)c1-c1ccc(Cl)cc1
14.3 nM | NS(=O)(=O)c1ccc(-n2nnc(CO)c2-c2ccccn2)cc1
1350 nM | NNC(=O)c1nnn(-c2ccc(S(N)(=O)=O)cc2)c1-c1ccc(Br)cc1
2900 nM | NNC(=O)c1nnn(-c2ccc(S(N)(=O)=O)cc2)c1-c1ccccn1
71.2 nM | NS(=O)(=O)c1ccc(-n2nnc(CO)c2-c2cccs2)cc1
2830 nM | NNC(=O)c1nnn(-c2ccc(S(N)(=O)=O)cc2)c1-c1cccs1
909 nM | NNC(=O)c1nnn(-c2ccc(S(N)(=O)=O)cc2)c1-c1ccc(Cl)cc1
